Some test systems named below: SK-MEL-28; OVCAR-8; SK-MEL-2; EKVX; ACHN; OVCAR-5; SR; NCI-H23; MOLT-4; SN12C; 786-0; RXF 393; MCF7; OVCAR-3; Malme-3M; RPMI-8226; MDA-MB-231; HCT-15; HT-29.
Assay in all cases: DTP human tumour cell line panel, 48 h

Molecules are shown by their SMILES.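 Each compound was tested at five concentrations against cells in 96-well plates for 48 hours. Here, GI50 denotes the concentration required for 50% inhibition of growth.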 Active and inactive are the calls of the source. Rule as the data show it: active = GI50 up to about 1.1 µM and inactive = higher.

Take `Nc1nc(Cl)cc(NC23CC4CC(CC(C4)C2)C3)n1`: the GI50 (as a rule, the concentration at which growth is held to half of that of the control) with SK-MEL-28 is > 100 µM (inactive); in the assay with OVCAR-8 it was 90.6 µM (inactive); with SK-MEL-2 it was 19.4 µM (inactive); in the assay on EKVX it was > 100 µM (inactive); in the assay with ACHN, > 100 µM (inactive); in the assay on OVCAR-5, > 100 µM (inactive). The GI50 in the assay with SR is > 100 µM (inactive); with NCI-H23, 34 µM (inactive); with MOLT-4 it was > 100 µM (inactive); with SN12C, > 100 µM (inactive); in the assay on 786-0 it was > 100 µM (inactive); with RXF 393, > 100 µM (inactive). Further, the GI50 with MCF7 was 85.9 µM (inactive); in the assay on OVCAR-3 it was > 100 µM (inactive); with Malme-3M, 44.1 µM (inactive); in the assay on RPMI-8226, > 100 µM (inactive); with MDA-MB-231, 94.6 µM (inactive); in the assay with HCT-15 it was 40.6 µM.
Turning to `CC[n+]1cnc(N)c2c(-c3ccc(Cl)cc3)cn(-c3ccc(C)cc3)c21`, the GI50 with SK-MEL-28 was 9.33 µM (inactive); in the assay on OVCAR-8, 18.5 µM (inactive); with SK-MEL-2, 18.7 µM (inactive); with EKVX, 14.8 µM (inactive); in the assay with ACHN, 12.9 µM (inactive); in the assay on OVCAR-5, 15.8 µM (inactive). The GI50 in the assay on SR was 4.6 µM (inactive); in the assay with NCI-H23, 19.1 µM (inactive); in the assay with HT-29 it was 4.36 µM (inactive); in the assay on MOLT-4 it was 4.52 µM (inactive); in the assay on SN12C, 12.3 µM (inactive); in the assay with 786-0, 11.4 µM (inactive). Also, the GI50 is 3.05 µM (inactive) in the assay on RXF 393; 0.971 µM (active) in the assay with MCF7; 9.38 µM (inactive) with OVCAR-3; 12.3 µM (inactive) with Malme-3M; 17 µM (inactive) in the assay with MDA-MB-231; 14.9 µM with HCT-15.
Regarding `Nc1cccc(S(=O)(=O)Nc2nnc(S(N)(=O)=O)s2)c1`, the GI50 in the assay with SK-MEL-28, in the assay on OVCAR-8, in the assay on SK-MEL-2, in the assay on EKVX, in the assay on ACHN and with OVCAR-5 was > 100 µM (inactive) in each case. For the same compound, the GI50 in the assay on SR, with NCI-H23, in the assay on HT-29, with MOLT-4, in the assay with 786-0 and with RXF 393 was > 100 µM (inactive) each time. Also, the GI50 was > 100 µM (inactive) in the assay with MCF7; > 100 µM (inactive) with OVCAR-3; > 100 µM (inactive) in the assay on Malme-3M; > 100 µM (inactive) in the assay on RPMI-8226; > 100 µM (inactive) in the assay on MDA-MB-231; > 100 µM in the assay with HCT-15.
On to `CC[C@@]1(O)C(=O)OCc2c1cc1n(c2=O)Cc2cc3cc(OC)ccc3nc2-1`, for which the GI50 in the assay with SK-MEL-28 is 0.372 µM (active); in the assay with OVCAR-8, 0.0448 µM (active); in the assay on SK-MEL-2 it was 0.16 µM (active); with EKVX, 0.546 µM (active); in the assay on ACHN, 0.00476 µM (active); with OVCAR-5, 0.0452 µM (active). Further, the GI50 is 0.00667 µM (active) in the assay with SR; 0.00902 µM (active) in the assay with NCI-H23; 0.0268 µM (active) in the assay on HT-29; 0.00458 µM (active) in the assay with MOLT-4; 0.0245 µM (active) with SN12C; 0.00923 µM (active) in the assay with 786-0. Besides, the GI50 with RXF 393 was 0.016 µM (active); in the assay with MCF7 it was 0.0041 µM (active); with OVCAR-3 it was 0.435 µM (active); with Malme-3M, 0.255 µM (active); with RPMI-8226, 0.107 µM (active); with MDA-MB-231, 0.0843 µM (active). Also, growth in the assay on HCT-15 was halved (GI50) at 0.116 µM.

These data come from ChEMBL document CHEMBL1201862, “PubChem BioAssay data set” (2004).
